{"source": "paper PMC4816213", "about": "(Bioorganic & medicinal chemistry letters, 2015)", "key": {"Sigma2": {"target": "Sigma2", "assay": "radioligand competition binding"}, "NOP": {"target": "NOP (Homo sapiens, UniProt P41146)", "sequence (P41146 whole entry)": "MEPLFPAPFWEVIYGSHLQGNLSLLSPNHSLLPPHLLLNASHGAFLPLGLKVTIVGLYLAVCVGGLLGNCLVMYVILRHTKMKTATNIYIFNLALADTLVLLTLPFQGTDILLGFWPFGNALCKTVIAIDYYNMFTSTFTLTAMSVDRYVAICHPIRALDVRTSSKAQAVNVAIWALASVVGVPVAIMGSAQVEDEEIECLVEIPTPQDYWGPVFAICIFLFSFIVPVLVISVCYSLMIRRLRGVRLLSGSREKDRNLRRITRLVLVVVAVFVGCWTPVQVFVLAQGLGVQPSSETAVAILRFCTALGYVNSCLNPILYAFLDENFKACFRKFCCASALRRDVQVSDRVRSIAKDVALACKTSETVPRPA", "assay": "biochemical"}, "DAT": {"target": "DAT (Homo sapiens, UniProt Q01959)", "sequence (Q01959 whole entry)": "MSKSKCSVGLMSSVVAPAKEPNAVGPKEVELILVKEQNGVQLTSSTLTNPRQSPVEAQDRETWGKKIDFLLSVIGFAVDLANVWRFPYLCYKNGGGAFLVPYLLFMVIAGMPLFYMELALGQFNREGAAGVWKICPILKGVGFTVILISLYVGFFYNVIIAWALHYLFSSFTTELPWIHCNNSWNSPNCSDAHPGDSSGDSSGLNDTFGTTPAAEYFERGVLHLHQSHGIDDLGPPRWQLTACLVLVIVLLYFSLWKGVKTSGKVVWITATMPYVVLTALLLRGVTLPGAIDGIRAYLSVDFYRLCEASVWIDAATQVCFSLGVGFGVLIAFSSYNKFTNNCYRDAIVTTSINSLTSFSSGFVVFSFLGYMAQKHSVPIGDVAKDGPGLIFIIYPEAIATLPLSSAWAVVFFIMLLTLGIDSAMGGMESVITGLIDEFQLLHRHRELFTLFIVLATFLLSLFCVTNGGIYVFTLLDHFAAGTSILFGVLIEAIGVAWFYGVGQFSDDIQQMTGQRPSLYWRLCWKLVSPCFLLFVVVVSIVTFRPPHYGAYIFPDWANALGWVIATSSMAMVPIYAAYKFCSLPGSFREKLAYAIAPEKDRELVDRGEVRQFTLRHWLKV", "assay": "biochemical"}, "β1": {"target": "β1 (Homo sapiens, UniProt P08588)", "sequence (P08588 whole entry)": "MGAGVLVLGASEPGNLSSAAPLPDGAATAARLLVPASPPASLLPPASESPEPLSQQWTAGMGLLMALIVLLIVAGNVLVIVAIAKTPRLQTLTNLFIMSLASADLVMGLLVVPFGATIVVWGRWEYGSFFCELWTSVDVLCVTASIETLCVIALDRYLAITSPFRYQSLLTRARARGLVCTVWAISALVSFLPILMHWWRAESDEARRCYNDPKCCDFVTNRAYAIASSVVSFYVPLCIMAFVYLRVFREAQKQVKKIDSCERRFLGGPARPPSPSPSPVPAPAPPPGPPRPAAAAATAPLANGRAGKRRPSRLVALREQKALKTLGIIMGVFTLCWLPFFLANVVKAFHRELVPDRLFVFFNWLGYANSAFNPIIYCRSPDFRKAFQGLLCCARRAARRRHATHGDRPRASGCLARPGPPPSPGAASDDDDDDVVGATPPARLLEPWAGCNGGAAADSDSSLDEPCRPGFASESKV", "assay": "biochemical"}, "DOR": {"target": "DOR (Homo sapiens, UniProt P41143)", "sequence (P41143 whole entry)": "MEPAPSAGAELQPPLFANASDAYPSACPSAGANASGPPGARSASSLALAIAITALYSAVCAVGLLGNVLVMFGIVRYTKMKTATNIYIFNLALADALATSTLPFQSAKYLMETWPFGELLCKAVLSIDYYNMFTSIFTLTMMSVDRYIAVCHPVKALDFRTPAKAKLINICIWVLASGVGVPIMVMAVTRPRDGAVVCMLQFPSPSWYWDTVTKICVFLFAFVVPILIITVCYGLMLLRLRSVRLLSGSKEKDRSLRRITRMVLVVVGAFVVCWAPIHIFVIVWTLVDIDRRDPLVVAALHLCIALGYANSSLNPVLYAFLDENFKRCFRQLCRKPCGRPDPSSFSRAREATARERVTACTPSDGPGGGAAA", "assay": "biochemical"}, "HERG": {"target": "HERG (Homo sapiens, UniProt Q12809)", "sequence (Q12809 whole entry)": "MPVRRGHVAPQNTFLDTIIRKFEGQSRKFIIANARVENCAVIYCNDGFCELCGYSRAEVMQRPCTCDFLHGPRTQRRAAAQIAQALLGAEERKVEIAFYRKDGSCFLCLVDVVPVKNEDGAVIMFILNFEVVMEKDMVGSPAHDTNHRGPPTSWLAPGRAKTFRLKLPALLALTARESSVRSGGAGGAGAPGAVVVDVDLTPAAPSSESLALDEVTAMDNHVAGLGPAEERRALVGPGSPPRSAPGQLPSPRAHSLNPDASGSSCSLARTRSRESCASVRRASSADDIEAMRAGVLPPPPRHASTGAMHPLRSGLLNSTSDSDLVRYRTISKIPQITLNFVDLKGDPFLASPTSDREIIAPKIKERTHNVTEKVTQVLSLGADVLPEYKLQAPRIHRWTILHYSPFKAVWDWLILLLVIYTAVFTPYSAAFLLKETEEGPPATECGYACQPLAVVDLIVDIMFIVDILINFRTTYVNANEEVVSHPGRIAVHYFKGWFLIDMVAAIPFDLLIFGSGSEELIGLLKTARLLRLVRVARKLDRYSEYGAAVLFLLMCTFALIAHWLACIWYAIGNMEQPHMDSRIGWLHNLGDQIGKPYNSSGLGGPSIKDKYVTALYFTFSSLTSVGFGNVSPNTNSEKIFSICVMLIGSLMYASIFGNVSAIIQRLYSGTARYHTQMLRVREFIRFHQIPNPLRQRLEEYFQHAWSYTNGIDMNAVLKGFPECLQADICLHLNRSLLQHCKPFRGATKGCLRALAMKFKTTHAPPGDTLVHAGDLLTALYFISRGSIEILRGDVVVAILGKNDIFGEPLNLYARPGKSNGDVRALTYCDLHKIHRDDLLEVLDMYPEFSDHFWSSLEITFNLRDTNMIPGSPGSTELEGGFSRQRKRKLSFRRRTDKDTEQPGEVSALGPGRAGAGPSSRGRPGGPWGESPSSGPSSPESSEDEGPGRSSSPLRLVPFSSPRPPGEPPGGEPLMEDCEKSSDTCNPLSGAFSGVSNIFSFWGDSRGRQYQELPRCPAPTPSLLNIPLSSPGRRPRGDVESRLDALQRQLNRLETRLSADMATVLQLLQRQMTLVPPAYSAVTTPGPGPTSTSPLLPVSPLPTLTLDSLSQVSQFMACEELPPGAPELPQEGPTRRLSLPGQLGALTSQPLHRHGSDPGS", "assay": "biochemical"}, "β3": {"target": "β3 (Homo sapiens, UniProt P13945)", "sequence (P13945 whole entry)": "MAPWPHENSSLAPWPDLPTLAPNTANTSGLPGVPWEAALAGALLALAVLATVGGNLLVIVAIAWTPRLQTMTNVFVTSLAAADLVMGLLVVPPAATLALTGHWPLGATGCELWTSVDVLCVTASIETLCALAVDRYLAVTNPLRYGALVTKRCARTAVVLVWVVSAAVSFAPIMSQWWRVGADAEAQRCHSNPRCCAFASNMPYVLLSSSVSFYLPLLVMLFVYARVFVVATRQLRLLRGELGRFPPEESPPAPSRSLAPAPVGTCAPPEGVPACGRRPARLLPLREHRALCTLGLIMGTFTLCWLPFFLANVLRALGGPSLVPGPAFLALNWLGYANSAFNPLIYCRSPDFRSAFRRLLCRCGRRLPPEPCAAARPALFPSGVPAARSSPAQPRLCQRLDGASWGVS", "assay": "biochemical"}, "D5": {"target": "D5 (Homo sapiens, UniProt P21918)", "sequence (P21918 whole entry)": "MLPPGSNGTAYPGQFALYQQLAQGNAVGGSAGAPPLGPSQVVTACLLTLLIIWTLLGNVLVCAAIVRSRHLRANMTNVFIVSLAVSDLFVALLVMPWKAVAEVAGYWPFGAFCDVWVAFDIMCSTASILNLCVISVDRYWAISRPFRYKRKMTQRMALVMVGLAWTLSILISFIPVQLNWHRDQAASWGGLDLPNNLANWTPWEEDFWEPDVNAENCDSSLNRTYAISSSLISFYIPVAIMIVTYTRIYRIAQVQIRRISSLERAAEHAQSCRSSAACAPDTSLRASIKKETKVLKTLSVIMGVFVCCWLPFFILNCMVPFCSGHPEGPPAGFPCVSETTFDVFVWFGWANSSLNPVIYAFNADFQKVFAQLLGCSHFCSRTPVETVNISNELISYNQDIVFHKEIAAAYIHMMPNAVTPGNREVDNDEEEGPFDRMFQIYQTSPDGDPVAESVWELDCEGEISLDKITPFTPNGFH", "assay": "biochemical"}, "Sigma1": {"target": "Sigma1", "assay": "radioligand competition binding"}, "PBR": {"target": "PBR", "assay": "radioligand competition binding"}}}
{"compound": "COc1cc(CCNCc2ccccc2OCCF)c(OC)cc1Br", "note": "[compound 1, 2-(4-bromo-2,5-dimethoxyphenyl)-N-(2-(2-fluoroethoxy)benzyl)ethanamine]", "values": [{"measurement": "Ki", "setting": "Sigma2", "result": 0.051, "unit": "µM"}, {"measurement": "Ki", "setting": "NOP", "result": "> 10", "unit": "µM"}, {"measurement": "Ki", "setting": "DAT", "result": "> 10", "unit": "µM"}, {"measurement": "Ki", "setting": "β1", "result": "> 10", "unit": "µM"}, {"measurement": "Ki", "setting": "DOR", "result": "> 10", "unit": "µM"}, {"measurement": "Ki", "setting": "HERG", "result": "> 10", "unit": "µM"}, {"measurement": "Ki", "setting": "β3", "result": "> 10", "unit": "µM"}, {"measurement": "Ki", "setting": "D5", "result": "> 10", "unit": "µM"}, {"measurement": "Ki", "setting": "Sigma1", "result": 0.499, "unit": "µM"}, {"measurement": "Ki", "setting": "PBR", "result": 0.876, "unit": "µM"}]}
